One data set has as its system Hepatitis B virus. The data set can be described thus: Antiviral activity against HBV stably transfected in human HepG2.2.15 cells assessed as reduction of HBV DNA replication incubated for 5 days by q-PCR analysis. The class given is functional, organism-based. To be noted: HepG2 2.2.15, 120 h.
Data set [1] can be described thus: Cytotoxicity against human HepDE19 cells assessed as reduction in cell viability incubated for 5 days by CCK-8 assay. The data set is classed as functional. The settings on record: HepDE19, 120 h, time 5 day. A general note: Tetrazolium assays rely on reduction of a dye to a coloured formazan, in cell work by metabolically active cells.
The nature of data set [2]: Induction of CYP3A4 mRNA expression level in human hepatocytes at 10 uM incubated for 24 hrs by q-PCR analysis. The class given is ADME, cell-based, Hepatocyte.
Data set [3] can be described thus: Clearance in human liver microsomes at 1 uM measured upto 30 mins in presence of NADPH by LC-MS/MS analysis. The class given is ADME, Microsome.
In data set [4] the target is Voltage-gated inwardly rectifying potassium channel KCNH2 (Homo sapiens, UniProt Q12809). Put plainly: (§1) Inhibition of hERG stably expressed in CHO cells by whole-cell voltage-clamp assay. The class given is toxicity, cell-based. (Block of hERG is tested as a sign of cardiac risk.)
In a further data set the target is hERG (Homo sapiens, UniProt Q12809). The data set is described as §1. The data set is classed as toxicity, cell-based. To be noted: human, CHO cells stably expressing hERG.
Chain of hERG (Q12809 whole entry): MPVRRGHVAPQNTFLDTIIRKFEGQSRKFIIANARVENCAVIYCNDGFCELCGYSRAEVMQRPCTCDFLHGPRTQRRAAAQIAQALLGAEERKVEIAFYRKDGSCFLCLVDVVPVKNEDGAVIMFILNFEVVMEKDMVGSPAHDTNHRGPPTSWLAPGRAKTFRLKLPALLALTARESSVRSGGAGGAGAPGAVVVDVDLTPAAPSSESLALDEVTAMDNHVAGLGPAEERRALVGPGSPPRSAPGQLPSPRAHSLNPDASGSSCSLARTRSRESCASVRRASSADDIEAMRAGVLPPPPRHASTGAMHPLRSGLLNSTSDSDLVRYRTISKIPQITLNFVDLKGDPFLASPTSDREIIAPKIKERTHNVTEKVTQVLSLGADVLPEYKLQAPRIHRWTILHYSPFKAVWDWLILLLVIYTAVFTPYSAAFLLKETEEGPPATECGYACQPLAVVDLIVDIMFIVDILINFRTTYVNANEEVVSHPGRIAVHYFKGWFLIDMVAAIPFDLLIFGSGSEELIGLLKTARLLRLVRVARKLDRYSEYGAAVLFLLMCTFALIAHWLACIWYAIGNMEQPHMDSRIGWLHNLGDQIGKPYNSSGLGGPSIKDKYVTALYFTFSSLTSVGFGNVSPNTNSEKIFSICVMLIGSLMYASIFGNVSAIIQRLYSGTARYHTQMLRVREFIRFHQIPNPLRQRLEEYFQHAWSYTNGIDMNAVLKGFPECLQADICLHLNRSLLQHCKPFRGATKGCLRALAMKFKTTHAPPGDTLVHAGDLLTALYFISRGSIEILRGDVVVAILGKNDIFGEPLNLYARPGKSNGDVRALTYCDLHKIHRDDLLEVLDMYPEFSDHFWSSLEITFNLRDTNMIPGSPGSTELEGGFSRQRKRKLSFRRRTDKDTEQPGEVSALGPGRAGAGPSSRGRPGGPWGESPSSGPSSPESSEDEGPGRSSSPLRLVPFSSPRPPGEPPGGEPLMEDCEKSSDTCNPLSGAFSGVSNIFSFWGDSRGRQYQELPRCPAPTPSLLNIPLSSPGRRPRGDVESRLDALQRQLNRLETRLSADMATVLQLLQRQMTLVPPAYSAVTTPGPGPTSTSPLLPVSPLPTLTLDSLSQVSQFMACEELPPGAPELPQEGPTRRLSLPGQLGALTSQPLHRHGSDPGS

Chain of Voltage-gated inwardly rectifying potassium channel KCNH2 (Q12809 whole entry): as above

As usually defined, the EC50 is the concentration at which the effect is half-maximal. What is called CC50 is the concentration that lowers cell viability or growth by half. Regarding `COC(=O)C1=C(CN2CCN3C(=O)N(CCC(C)(C)C(=O)O)C[C@@H]3C2)NC(c2nccs2)=N[C@H]1c1ccc(F)cc1Cl`, the EC50 with Hepatitis B virus was determined as 8 nM. Moreover, the CC50 in data set [1] was more than 100000 nM. This molecule also had an Activity in data set [2] of 0%. Besides, the CLhep predicted at 1 µM in data set [3] was 4.6 mL/min/kg.
One may read the IC50 as the concentration at which inhibition is half-maximal. Lower therefore signals greater potency. What is called IC20 is the concentration needed for an effect of 20%. A low value points to an effect from little substance. As to `COC(=O)C1=C(CN2CCN3C(=O)N(CC4(C(=O)O)CC4)C[C@@H]3C2)NC(c2nccs2)=N[C@H]1c1ccc(F)cc1Cl`, the EC50 in the data set on Hepatitis B virus was 11 nM. Further, in data set [1], the CC50 is more than 100000 nM. Besides, the CLhep predicted at 1 µM in data set [3] is 0.3 mL/min/kg. This molecule yielded an IC50 in data set [4] of 7800 nM. Moreover, the IC20 against hERG came to 2300 nM.
Take `CCOC(=O)C1=C(CN2CCN3C(=O)N(c4ccccc4C(=O)O)C[C@@H]3C2)NC(c2nccs2)=N[C@H]1c1ccc(F)cc1Cl` (single isomer, unassigned): the EC50 with Hepatitis B virus was 30 nM. For the same molecule, the CLhep predicted at 1 µM in data set [3] was 4.4 mL/min/kg.
`COC(=O)C1=C(CN2CCN3C(=O)COCC3C2)NC(c2nccs2)=N[C@H]1c1ccc(F)cc1Cl` (some centres not stated): the EC50 in the data set with Hepatitis B virus came out at 55 nM. Further, the 50% cytotoxic concentration (CC50) in data set [1] was found to be 68000 nM.
In the case of `COC(=O)C1=C(CN2CCN3C(=O)N(c4ccc(C(=O)O)cc4)C[C@@H]3C2)NC(c2nccs2)=N[C@H]1c1ccc(F)cc1Cl` (single isomer, unassigned), in the data set on Hepatitis B virus, the EC50 was found to be 2 nM. Besides, the CLhep predicted at 1 µM in data set [3] was 0.43 mL/min/kg. This molecule registered an IC50 in data set [4] of more than 10000 nM. For the same molecule, the 20% effect level against hERG (IC20) was put at 4000 nM.
As for `COC(=O)C1=C(CN2CCN(C(C)=O)CC2)NC(c2nccs2)=N[C@H]1c1ccc(F)cc1Cl`, the EC50 in the data set on Hepatitis B virus is 50 nM. The CC50 in data set [1] was more than 100000 nM.
For the molecule `COC(=O)C1=C(CN2CCc3c([nH][nH]c3=O)C2)NC(c2nccs2)=N[C@H]1c1ccc(F)cc1Cl`, the EC50 in the data set with Hepatitis B virus is 750 nM. For the same molecule, the CC50 in data set [1] was more than 100000 nM. The same molecule had an Activity in data set [2] of 13%.
For `COC(=O)C1=C(CN2CCN3C(=O)N([C@H]4C[C@@H](C(=O)O)C4)C[C@@H]3C2)NC(c2nccs2)=N[C@H]1c1ccc(F)cc1Cl`, in the data set on Hepatitis B virus, the EC50 stood at 30 nM. Moreover, the CC50 in data set [1] was more than 100000 nM. Further, the CLhep predicted at 1 µM in data set [3] was 0.4 mL/min/kg.
Take `COC(=O)C1=C(CN2CCN3C(=O)CC[C@@H]3C2)NC(c2nccs2)=N[C@H]1c1ccc(F)cc1Cl`: the EC50 in the data set on Hepatitis B virus was determined as 14 nM. In addition, the 50% cytotoxic concentration (CC50) in data set [1] came to 45000 nM. This molecule came in with an Activity in data set [2] of 44%.
Turning to `CCOC(=O)C1=C(CN2CCN3C(=O)N(c4ccc(C(=O)O)cc4)C[C@@H]3C2)NC(c2nccs2)=N[C@H]1c1ccc(F)cc1Cl` (single isomer, unassigned), the EC50 with Hepatitis B virus was 2 nM. The 50% cytotoxic concentration (CC50) in data set [1] turned out to be 28000 nM.
For the molecule `COC(=O)C1=C(CN2CCN3C(=O)N(c4cccc(C(=O)O)c4)C[C@@H]3C2)NC(c2nccs2)=N[C@H]1c1ccc(F)cc1Cl` (single isomer, unassigned), the EC50 in the data set on Hepatitis B virus amounted to 7 nM. Besides, the CC50 in data set [1] turned out to be 33000 nM. The CLhep predicted at 1 µM in data set [3] is 0.3 mL/min/kg.
Regarding `CCOC(=O)C1=C(CN2C[C@H]3CN(C4CC4)C(=O)N3C[C@@H]2C(=O)O)NC(c2nccs2)=N[C@H]1c1ccc(F)cc1Cl`, the EC50 in the data set on Hepatitis B virus was determined as 2 nM. Besides, in data set [1], the CC50 is more than 100000 nM. This molecule also registered an Activity in data set [2] of 6%. In addition, in data set [3], the CLhep predicted at 1 µM was 2.7 mL/min/kg. In data set [4], the IC50 is more than 20000 nM. Moreover, the IC20 against hERG is more than 10000 nM.
Turning to `COC(=O)C1=C(CN2CCN3C(=O)N(C(C)(C)CC(=O)O)C[C@@H]3C2)NC(c2nccs2)=N[C@H]1c1ccc(F)cc1Cl`, the EC50 in the data set with Hepatitis B virus worked out at 30 nM. The CC50 in data set [1] is more than 100000 nM. Besides, in data set [3], the CLhep predicted at 1 µM is 2.5 mL/min/kg.
Taken in the same sequence, the figures for `CCOC(=O)C1=C(CN2CCN3C(=O)N(C(C)(C)C(=O)O)C[C@@H]3C2)NC(c2nccs2)=N[C@H]1c1ccc(F)cc1Cl` were 200 nM, 61000 nM and 1.6 mL/min/kg.
`COC(=O)C1=C(CN2CCN3C(=O)OC[C@H]3C2)NC(c2nccs2)=N[C@H]1c1ccc(F)cc1Cl`: in the data set with Hepatitis B virus, the EC50 worked out at 23 nM. For the same molecule, the CC50 in data set [1] came out at 76000 nM.
The matching figures for `COC(=O)C1=C(CN2CCN3C(=O)OCCC3C2)NC(c2nccs2)=N[C@H]1c1ccc(F)cc1Cl` (some centres not stated): 100 nM and 62000 nM.
`COC(=O)C1=C(CN2CCN3C(=O)N(CC4(C(=O)O)CCC4)C[C@@H]3C2)NC(c2nccs2)=N[C@H]1c1ccc(F)cc1Cl`: in the data set with Hepatitis B virus, the concentration giving a half-maximal response (EC50) came out at 11 nM. Moreover, the CC50 in data set [1] was more than 100000 nM. This molecule also registered an Activity in data set [2] of 2.2%. Moreover, the CLhep predicted at 1 µM in data set [3] was 2.3 mL/min/kg. The concentration for half-maximal inhibition (IC50) in data set [4] was more than 20000 nM. This molecule showed an IC20 on hERG of 7200 nM.
As to `COC(=O)C1=C(CN2CCN3C(=O)CC[C@H]3C2)NC(c2nccs2)=N[C@H]1c1ccc(F)cc1Cl`, the EC50 in the data set on Hepatitis B virus came out at 160 nM. The CC50 in data set [1] worked out at 71000 nM.
`COC(=O)C1=C(CN2CCN3C(=O)NC[C@@H]3C2)NC(c2nccs2)=N[C@H]1c1ccc(F)cc1Cl`: in the data set with Hepatitis B virus, the EC50 was 2 nM. In data set [1], the CC50 was found to be 52000 nM. Moreover, the Activity in data set [2] is 17%.
For `COC(=O)C1=C(CN2CCN3C(=O)N([C@H]4CC[C@H](C(=O)O)CC4)C[C@@H]3C2)NC(c2nccs2)=N[C@H]1c1ccc(F)cc1Cl`, in the data set on Hepatitis B virus, the EC50 turned out to be 9 nM. In addition, the CC50 in data set [1] turned out to be 43000 nM. The CLhep predicted at 1 µM in data set [3] was 5.2 mL/min/kg.
`COC(=O)C1=C(CN2CCOC[C@H]2C(=O)O)N=C(c2nccs2)N[C@H]1c1ccc(F)cc1Cl`: the EC50 in the data set on Hepatitis B virus turned out to be 3 nM. Also, the CC50 in data set [1] is more than 100000 nM. The molecule also displayed an Activity in data set [2] of 110%.
The matching figures for `COC(=O)C1=C(CN2CCN3C(=O)OC[C@@H]3C2)NC(c2nccs2)=N[C@H]1c1ccc(F)cc1Cl`: 3 nM, 79000 nM and 70%.
Take `COC(=O)C1=C(CN2CCN3C(=O)N(C4CCC(C(=O)O)CC4)C[C@@H]3C2)NC(c2nccs2)=N[C@H]1c1ccc(F)cc1Cl` (some centres not stated): the EC50 in the data set on Hepatitis B virus worked out at 9 nM. In addition, in data set [1], the CC50 was 70000 nM. This molecule gave an Activity in data set [2] of 0%. For the same molecule, the CLhep predicted at 1 µM in data set [3] is 8.1 mL/min/kg. The same molecule showed an IC50 in data set [4] of more than 20000 nM. This molecule also had an IC20 against hERG of more than 10000 nM.
As for `COC(=O)C1=C(CN2CCN3C(=O)N([C@H]4C[C@H](C(=O)O)C4)C[C@@H]3C2)NC(c2nccs2)=N[C@H]1c1ccc(F)cc1Cl`, the EC50 with Hepatitis B virus is 34 nM. The CC50 in data set [1] is 43000 nM.
As for `CCOC(=O)C1=C(CN2C[C@H]3CN(C)C(=O)N3C[C@H]2C(=O)O)NC(c2nccs2)=N[C@H]1c1cccc(F)c1Cl`, the EC50 with Hepatitis B virus turned out to be 150 nM. In data set [1], the CC50 is more than 100000 nM.
As to `COC(=O)C1=C(CN2CCN3CCCC3C2)NC(c2nccs2)=N[C@H]1c1ccc(F)cc1Cl` (some centres not stated), in the data set on Hepatitis B virus, the EC50 is more than 1000 nM.
With `CCOC(=O)C1=C(CN2C[C@H]3CN(C4CC4)C(=O)N3C[C@H]2C(=O)O)NC(c2nccs2)=N[C@H]1c1ccc(F)cc1Cl`, the EC50 with Hepatitis B virus came to 145 nM. The CC50 in data set [1] was more than 100000 nM. Also, the CLhep predicted at 1 µM in data set [3] is 1.7 mL/min/kg.
Regarding `CCOC(=O)C1=C(CN2C[C@H]3CN(C(C)(C)C)C(=O)N3C[C@H]2C(=O)O)NC(c2nccs2)=N[C@H]1c1ccc(F)cc1Cl`, the EC50 with Hepatitis B virus came to 62 nM. Moreover, in data set [1], the CC50 was more than 100000 nM.
The matching figures for `COC(=O)C1=C(CN2CCN3C(=O)NC[C@H]3C2)NC(c2nccs2)=N[C@H]1c1ccc(F)cc1Cl`: 150 nM and 89000 nM.

The values are drawn from ChEMBL document CHEMBL5316357, “Discovery of Linvencorvir (RG7907), a Hepatitis B Virus Core Protein Allosteric Modulator, for the Treatment of Chronic HBV Infection” (J Med Chem, 2023).
